Measurements as given in patent US20260226048A1, “MULTI-CYCLIC IRAK AND FLT3 INHIBITING COMPOUNDS AND USES THEREOF” (CHILDREN'S HOSPITAL MEDICAL CENTER, priority 2023, published 2026).
Where two headings read alike, the source gives them in different places.

How the values were obtained:
IRAK1 = molecular target: T1, IRAK1 (Homo sapiens, UniProt P51617); assay: RBC HotSpot Kinase Assay, IRAK1; type: biochemical; conditions: isolated kinase enzyme, 33P-ATP, P81 filter-binding
T1 construct: purchased Reaction Biology (RBC HotSpot)
Method in brief: (§1)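 Radiometric HotSpot assay of catalytic activity with isolated recombinant kinase, possibly truncated or kinase domain only. Buffer: 20 mM Hepes pH 7.5, 10 mM MgCl2, 1 mM EGTA, 0.01% Brij35, 0.02 mg/ml BSA, 0.1 mM Na3VO4, 2 mM DTT, 1% DMSO, with cofactors specific to each kinase.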

MOLM14 F691L cells = assay: MOLM14 F691L cell viability assay (Cell Titer Glo); type: cell-based; conditions: Homo sapiens, MOLM-14; cell viability, Cell Titer Glo, 48 hours; read-out: MOLM14 F691L IC50
Method in brief: (§2)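 MOLM14 cells with FLT3 D835Y or F691L kinase-domain resistance mutations seeded at 1000 cells/well and exposed to compound for 48 h under standard incubator conditions. Viability read by CellTiter-Glo luminescence after 15 min at room temperature.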

IRAK4 = molecular target: T2, IRAK4 (Homo sapiens, UniProt Q9NWZ3); assay: RBC HotSpot Kinase Assay, IRAK4; type: biochemical; set-up: purchased Reaction Biology (RBC HotSpot); conditions: isolated kinase enzyme, 33P-ATP, P81 filter-binding
T2 sequence (Q9NWZ3 1-460): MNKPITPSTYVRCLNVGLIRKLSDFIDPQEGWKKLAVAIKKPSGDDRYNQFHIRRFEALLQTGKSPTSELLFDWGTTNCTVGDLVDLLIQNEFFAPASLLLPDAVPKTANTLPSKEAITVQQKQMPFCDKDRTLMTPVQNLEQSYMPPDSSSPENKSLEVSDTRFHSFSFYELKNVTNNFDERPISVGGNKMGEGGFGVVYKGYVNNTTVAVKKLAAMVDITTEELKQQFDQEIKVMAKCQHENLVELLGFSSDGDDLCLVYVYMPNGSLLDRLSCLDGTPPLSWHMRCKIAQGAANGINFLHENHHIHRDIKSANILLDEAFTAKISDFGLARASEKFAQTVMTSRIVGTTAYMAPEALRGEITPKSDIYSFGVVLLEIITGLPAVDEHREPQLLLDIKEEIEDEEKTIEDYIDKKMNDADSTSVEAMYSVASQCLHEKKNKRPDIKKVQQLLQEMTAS
Method in brief: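 Radiometric filter-binding activity assay with isolated recombinant kinase (construct may be truncated or catalytic domain only) in 20 mM Hepes pH 7.5, 10 mM MgCl2, 1 mM EGTA, 2 mM DTT, 1% DMSO. Compound preincubated 20 min with kinase/substrate; reaction started with 33P-ATP, run 2 h at room temperature.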

MOLM14 D835Y cells = assay: MOLM14 D835Y cell viability assay (Cell Titer Glo); type: cell-based; conditions: Homo sapiens, MOLM-14, 48 h, cell viability, Cell Titer Glo, 48 hours; read-out: MOLM14 D835Y IC50
Method in brief: as §2

FLT3 = molecular target: T3, FLT3 (Homo sapiens, UniProt P36888); assay: RBC HotSpot Kinase Assay, FLT3; type: biochemical; set-up: purchased Reaction Biology (RBC HotSpot); conditions: isolated kinase enzyme, 33P-ATP, P81 filter-binding
T3 sequence (P36888 27-993): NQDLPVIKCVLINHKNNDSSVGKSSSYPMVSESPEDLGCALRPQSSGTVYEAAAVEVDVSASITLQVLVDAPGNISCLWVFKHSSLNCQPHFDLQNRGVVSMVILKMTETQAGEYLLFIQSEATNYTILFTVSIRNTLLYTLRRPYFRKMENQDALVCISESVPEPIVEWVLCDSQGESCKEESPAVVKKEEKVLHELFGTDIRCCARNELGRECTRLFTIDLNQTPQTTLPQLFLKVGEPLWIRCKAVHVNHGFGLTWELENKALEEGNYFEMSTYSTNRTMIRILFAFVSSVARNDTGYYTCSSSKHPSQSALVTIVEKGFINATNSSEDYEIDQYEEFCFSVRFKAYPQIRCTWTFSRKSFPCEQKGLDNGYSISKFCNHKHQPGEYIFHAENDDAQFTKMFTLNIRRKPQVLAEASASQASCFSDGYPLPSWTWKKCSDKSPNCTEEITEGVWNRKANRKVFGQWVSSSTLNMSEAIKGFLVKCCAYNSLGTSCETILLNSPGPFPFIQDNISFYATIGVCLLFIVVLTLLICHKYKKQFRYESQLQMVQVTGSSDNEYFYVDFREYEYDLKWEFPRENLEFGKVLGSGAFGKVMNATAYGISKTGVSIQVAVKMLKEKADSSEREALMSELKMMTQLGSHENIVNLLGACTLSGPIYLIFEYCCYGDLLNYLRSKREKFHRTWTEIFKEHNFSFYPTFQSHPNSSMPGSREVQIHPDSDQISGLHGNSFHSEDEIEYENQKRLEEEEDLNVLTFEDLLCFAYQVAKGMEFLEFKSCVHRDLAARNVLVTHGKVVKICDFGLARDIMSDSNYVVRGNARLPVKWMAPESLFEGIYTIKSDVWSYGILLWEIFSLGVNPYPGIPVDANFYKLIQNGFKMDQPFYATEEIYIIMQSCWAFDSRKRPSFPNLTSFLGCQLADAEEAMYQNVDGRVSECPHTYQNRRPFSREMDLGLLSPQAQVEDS
Method in brief: as §1

[1] = test system: NF-κB-inducible SEAP reporter in THP-1-Blue NF-κB cells; assay: NF-kB SEAP reporter assay in THP-1-Blue NF-κB cells; type: cell-based; conditions: 24 hours
Protocol: THP-1-Blue NF-κB cells (InvivoGen) carrying a stable integrated NF-κB-inducible secreted embryonic alkaline phosphatase (SEAP) reporter construct were plated at a concentration of 1×10^5 cells per well. The cells were stimulated with Pam3CSK4 (1 ng/mL) or hIL1B (1 ng/mL). After 10-20 minutes, the cells were then treated with vehicle (DMSO) or serial dilutions of the test compounds (10 doses tested for each test compound, with a 1:10 dilution series starting at 1 μM or 3 μM) with a final volume of 200 μL for 24 hours at 37° C. After 24 hours, the cells were centrifuged and 20 μL supernatant was incubated with 180 μL QUANTI-Blue reagent at 37° C. for 30-60 minutes. The levels of NF-κB-induced was measured in a microplate reader at 620 nm.

[2] = THP-1-Blue NF-κB cells stimulated with Pam3CSK4 (1 ng/mL), read-out: NF-κB Pam3SCK4 IC50
[3] = THP-1-Blue NF-κB cells stimulated with hIL1B (1 ng/mL), read-out: NF-κB IL1B IC50

T1 sequence (P51617 whole entry): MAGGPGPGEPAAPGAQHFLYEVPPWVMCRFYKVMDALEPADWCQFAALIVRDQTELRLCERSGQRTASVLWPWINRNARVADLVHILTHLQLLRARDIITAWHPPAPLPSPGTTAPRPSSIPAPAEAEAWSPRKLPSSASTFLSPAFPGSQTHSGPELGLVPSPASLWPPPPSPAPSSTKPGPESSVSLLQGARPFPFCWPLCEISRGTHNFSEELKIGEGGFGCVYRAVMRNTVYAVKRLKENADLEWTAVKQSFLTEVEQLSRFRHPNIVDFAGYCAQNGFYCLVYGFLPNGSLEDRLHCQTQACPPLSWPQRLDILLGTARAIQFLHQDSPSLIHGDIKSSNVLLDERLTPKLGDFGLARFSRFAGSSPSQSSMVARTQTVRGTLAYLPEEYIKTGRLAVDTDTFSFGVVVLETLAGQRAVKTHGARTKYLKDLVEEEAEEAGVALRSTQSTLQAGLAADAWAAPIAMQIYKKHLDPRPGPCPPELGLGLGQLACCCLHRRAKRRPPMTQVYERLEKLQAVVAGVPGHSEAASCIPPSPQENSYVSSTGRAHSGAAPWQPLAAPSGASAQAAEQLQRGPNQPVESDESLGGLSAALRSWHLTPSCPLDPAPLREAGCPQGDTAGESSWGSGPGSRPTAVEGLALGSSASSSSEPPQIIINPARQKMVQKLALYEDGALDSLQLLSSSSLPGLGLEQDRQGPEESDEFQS

SMILES	IC50 (IRAK1)	IC50 (MOLM14 F691L cells)	IC50 (IRAK4)	IC50 (MOLM14 D835Y cells)	IC50 (FLT3)	IC50 [1, 2]	IC50 [1, 3]
COc1cc2ncc(-c3nc(N[C@@H]4CCCNC4)ncc3F)n2nc1N1CCOCC1 [Compound 120a, (R)-5-fluoro-4-(7-methoxy-6-morpholinoimidazo[1,2-b]pyridazin-3-yl)-N-(piperidin-3-yl)pyrimidin-2-amine]	10 nM	45 nM	10 nM	5 nM	< 0.5 nM	339 nM	217 nM
COc1cc2ncc(-c3nc(N[C@@H]4CCCNC4)ncc3F)n2nc1C1COC1 [Compound 94a, (R)-5-fluoro-4-(7-methoxy-6-(oxetan-3-yl)imidazo[1,2-b]pyridazin-3-yl)-N-(piperidin-3-yl)pyrimidin-2-amine]	28 nM	40 nM	4 nM	6 nM	< 0.5 nM	188 nM	206 nM
COc1cc2ncc(-c3nc(N[C@@H]4CCCNC4)ncc3F)n2nc1C1CC(F)(F)C1 [Compound 51a, (R)-4-(6-(3,3-difluorocyclobutyl)-7-methoxyimidazo[1,2-b]pyridazin-3-yl)-5-fluoro-N-(piperidin-3-yl)pyrimidin-2-amine]	3 nM	–	3 nM	9 nM	< 0.5 nM	136 nM	135 nM
C[C@@](O)(c1ccc2ncc(-c3ccnc(N[C@H]4CNCC[C@@H]4F)n3)n2c1)C(F)(F)F (single isomer, unassigned) [Compound 27a]	4 nM	–	0.7 nM	18 nM	< 0.5 nM	55 nM	52 nM
COc1cc2ncc(-c3nc(N[C@H]4CNCC[C@@H]4F)ncc3F)n2nc1N1CCOCC1 [Compound 121a, 5-fluoro-N-((3S,4S)-4-fluoropiperidin-3-yl)-4-(7-methoxy-6-morpholinoimidazo[1,2-b]pyridazin-3-yl)pyrimidin-2-amine]	1 nM	20 nM	0.7 nM	2 nM	< 0.5 nM	89 nM	57 nM
COc1cc2ncc(-c3nc(N[C@H]4CNCC[C@@H]4F)ncc3F)n2nc1[C@H]1C[C@H](O)C1 [Compound 125a, (Trans)-3-(3-(5-fluoro-2-(((3S,4S)-4-fluoropiperidin-3-yl)amino)pyrimidin-4-yl)-7-methoxyimidazo[1,2-b]pyridazin-6-yl)cyclobutan-1-ol]	< 0.5 nM	16 nM	< 0.5 nM	2 nM	< 0.5 nM	30 nM	29 nM
CC(O)(c1ccc2ncc(-c3nc(N[C@@H]4CCCNC4)ncc3F)n2c1)C(F)(F)F (single isomer, unassigned) [Compound 37a]	2 nM	–	2 nM	32 nM	< 0.5 nM	70 nM	58 nM
COc1cc2ncc(-c3ccnc(N[C@H]4CNCC[C@@H]4F)n3)n2nc1C1CC(F)(F)C1 [Compound 19a, 4-(6-(3,3-difluorocyclobutyl)-7-methoxyimidazo[1,2-b]pyridazin-3-yl)-N-((3S,4S)-4-fluoropiperidin-3-yl)pyrimidin-2-amine]	70 nM	–	13 nM	51 nM	< 0.5 nM	701 nM	567 nM
F[C@H]1CCNC[C@@H]1Nc1cncc(-c2cnc3cc(OC4CC4)c(C4CC4)nn23)n1 [Compound 13a, 6-(7-cyclopropoxy-6-cyclopropylimidazo[1,2-b]pyridazin-3-yl)-N-((3S,4S)-4-fluoropiperidin-3-yl)pyrazin-2-amine]	55 nM	–	5 nM	115 nM	< 0.5 nM	512 nM	334 nM
COc1cc2ncc(-c3nc(N[C@@H]4CCCNC4)ncc3F)n2nc1C1CC1 [Compound 3a, (R)-4-(6-cyclopropyl-7-methoxyimidazo[1,2-b]pyridazin-3-yl)-5-fluoro-N-(piperidin-3-yl)pyrimidin-2-amine]	2 nM	5 nM	< 0.5 nM	1 nM	< 0.5 nM	40 nM	58 nM
COc1cc2ncc(-c3nc(N[C@H]4CNCC[C@@H]4F)ncc3F)n2nc1N1CCS(=O)(=O)CC1 [Compound 122a, 4-(3-(5-fluoro-2-(((3S,4S)-4-fluoropiperidin-3-yl)amino)pyrimidin-4-yl)-7-methoxyimidazo[1,2-b]pyridazin-6-yl)thiomorpholine 1,1-dioxide]	22 nM	127 nM	18 nM	11 nM	< 0.5 nM	407 nM	407 nM
COc1cc2ncc(-c3nc(N[C@H]4CNC[C@@H]4F)ncc3F)n2nc1N1CCOCC1 [Compound 119a, 5-fluoro-N-((3S,4S)-4-fluoropyrrolidin-3-yl)-4-(7-methoxy-6-morpholinoimidazo[1,2-b]pyridazin-3-yl)pyrimidin-2-amine]	1 nM	45 nM	< 0.5 nM	4 nM	< 0.5 nM	57 nM	69 nM
COc1cc2ncc(-c3nc(N[C@@H]4CCCNC4)ncc3F)n2nc1C12CC(C1)C2 [Compound 68a, (R)-4-(6-(bicyclo[1.1.1]pentan-1-yl)-7-methoxyimidazo[1,2-b]pyridazin-3-yl)-5-fluoro-N-(piperidin-3-yl)pyrimidin-2-amine]	0.9 nM	20 nM	0.8 nM	3 nM	< 0.5 nM	144 nM	108 nM
